Measurements taken from patent US20220104492A1, “PYRIDAZINIUM COMPOUNDS FOR USE IN A METHOD OF CONTROLLING UNWANTED PLANT GROWTH” (SYNGENTA CROP PROTECTION AG, priority 2019, published 2022).

Assays:
Assay in all cases: Post-emergence efficacy (glasshouse, spray application)
Type in all cases: in vivo
[1] = tested on: Amaranthus palmeri (AMAPA); conditions: 312 h, Application rate 500 g/Ha, evaluated after 13 days, 100=total damage to plant, 0=no damage to plant, read-out: Control of weed species after post-emergence application, AMAPA
Method: (§1) Seeds of a variety of test species were sown in standard soil in pots. After cultivation for 14 days (post-emergence) under controlled conditions in a glasshouse (at 24/16° C., day/night; 14 hours light; 65 humidity), the plants were sprayed with an aqueous spray solution derived from the dissolution of the technical active ingredient formula (I) in a small amount of acetone and a special solvent and emulsifier mixture referred to as IF50 (11.12% Emulsogen EL360 TM+44.44% N-methylpyrrolidone+44.44% Dowanol DPM glycol ether), to create a 50 g/l solution which was then diluted to required concentration using a solution of 0.25% or 1% Empicol ESC70 (Sodium lauryl ether sulphate)+1% ammonium sulphate in water as diluent.
(§2) The test plants were then grown in a glasshouse under controlled conditions (at 24/16° C., day/night; 14 hours light; 65% humidity) and watered twice daily. After 13 days the test was evaluated (100=total damage to plant; 0=no damage to plant).
(§3) Ipomoea hederacea (IPOHE), Euphorbia heterophylla (EPHHL), Chenopodium album (CHEAL), Amaranthus palmeri (AMAPA), Lolium perenne (LOLPE), Digitaria sanguinalis (DIGSA), Eleusine indica (ELEIN), Echinochloa crus-galli (ECHCG), Setaria faberi (SETFA)

[2] = tested on: Chenopodium album (CHEAL); conditions: 312 h, Application rate 500 g/Ha, evaluated after 13 days, 100=total damage to plant, 0=no damage to plant, read-out: Control of weed species after post-emergence application, CHEAL
Method: as §1, §2, §3

[3] = tested on: Digitaria sanguinalis (DIGSA); conditions: 312 h, Application rate 500 g/Ha, evaluated after 13 days, 100=total damage to plant, 0=no damage to plant, read-out: Control of weed species after post-emergence application, DIGSA
Method: as §1, §2, §3

[4] = tested on: Echinochloa crus-galli (ECHCG); conditions: 312 h, Application rate 500 g/Ha, evaluated after 13 days, 100=total damage to plant, 0=no damage to plant, read-out: Control of weed species after post-emergence application, ECHCG
Method: as §1, §2, §3

Eleusine indica (ELEIN) = conditions: 312 h, Application rate 500 g/Ha, evaluated after 13 days, 100=total damage to plant, 0=no damage to plant, read-out: Control of weed species after post-emergence application, ELEIN
Method: as §1, §2, §3

[5] = tested on: Euphorbia heterophylla (EPHHL); conditions: 312 h, Application rate 500 g/Ha, evaluated after 13 days, 100=total damage to plant, 0=no damage to plant, read-out: Control of weed species after post-emergence application, EPHHL
Method: as §1, §2, §3

[6] = tested on: Ipomoea hederacea (IPOHE); conditions: 312 h, Application rate 500 g/Ha, evaluated after 13 days, 100=total damage to plant, 0=no damage to plant, read-out: Control of weed species after post-emergence application, IPOHE
Method: as §1, §2, §3

Lolium perenne (LOLPE) = conditions: 312 h, Application rate 500 g/Ha, evaluated after 13 days, 100=total damage to plant, 0=no damage to plant, read-out: Control of weed species after post-emergence application, LOLPE
Method: as §1, §2, §3

Setaria faberi (SETFA) = conditions: 312 h, Application rate 500 g/Ha, evaluated after 13 days, 100=total damage to plant, 0=no damage to plant, read-out: Control of weed species after post-emergence application, SETFA
Method: as §1, §2, §3

Structure (SMILES) | pest or weed control at 500 g/ha [1] | pest or weed control at 500 g/ha [2] | pest or weed control at 500 g/ha [3] | pest or weed control at 500 g/ha [4] | pest or weed control at 500 g/ha (Eleusine indica (ELEIN)) | pest or weed control at 500 g/ha [5] | pest or weed control at 500 g/ha [6] | pest or weed control at 500 g/ha (Lolium perenne (LOLPE)) | pest or weed control at 500 g/ha (Setaria faberi (SETFA))
O=C(O)CSC[n+]1ccc(-c2ncccn2)cn1 [Compound A33, 2-[(4-pyrimidin-2-ylpyridazin-1-ium-1-yl)methylsulfanyl]acetic acid 2,2,2-trifluoroacetate] | 100% | 100% | 100% | 100% | 100% | 100% | 40% | 70% | 90%
CC(C)(NC(=O)CC[n+]1ccc(-c2ncccn2)cn1)C(=O)O [Compound A32] | 100% | 100% | 80% | 70% | 80% | 80% | 30% | 60% | 80%
CC(C)(NC(=O)C[n+]1ccc(-c2ncccn2)cn1)C(=O)O [Compound A37] | 100% | 50% | 70% | 40% | 70% | 80% | 40% | 70% | 80%
O=C(O)CNC(=O)C[n+]1ccc(-c2ccncc2)cn1 [Compound A20] | 100% | 90% | 70% | 60% | 60% | 90% | 70% | 30% | 70%
